According to PMC7160673, “A Degenerate Peptide Library Approach to Reveal Sequence Determinants of Methyllysine-Driven Protein Interactions” (Frontiers in Cell and Developmental Biology, 2020):

Experiments:
Assay type in all cases: binding
[1] = system: Millipore #07-449, anti-H3K27me3; experiment: Histone peptide microarray, Millipore 07-449; conditions: Millipore 07-449 (anti-H3K27me3) hits, average signal per peptide;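 also: normalized to the highest peptide average per subarray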
Method: (§1) Peptide microarrays were fabricated using an Aushon 2470 microarrayer and used as described ([Cornett et al., 2017]) with the following modifications. Protein and antibody hybridization steps were performed in buffer containing 25 mM HEPES pH 7.5, 100 mM NaCl, 0.5% BSA (w/v), and 0.1% NP-40. Slides were washed 3 × 5 min in PBS supplemented with 0.1% Tween-20 between each hybridization step. Antibodies used were primary anti-GST (Sigma #7781, 1:2,000 dilution) and an AlexaFluor 647-labeled secondary antibody (Life Technologies A-21245, 1:5,000 dilution). […] Full lists of peptides queried by array analysis are in Supplementary Table S2.

[2] = system: Abcam #ab8895, anti-H3K4me1; experiment: Histone peptide microarray, Abcam ab8895; conditions: Abcam ab8895 (anti-H3K4me1) hits, average signal per peptide;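 also: normalized to the highest peptide average per subarray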
Method: as §1

[3] = system: Active Motif #39161, anti-H3K9me3; experiment: Histone peptide microarray, Active Motif 39161; conditions: Active Motif 39161 (anti-H3K9me3) hits;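 also: normalized to the highest peptide average per subarray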
Method: as §1

[4] = system: 53BP1 TTD; experiment: Histone peptide microarray, 53BP1 TTD; conditions: 53BP1 TTD hits, average signal per peptide
Method: as §1

| Substance | Avg Signal [1] | Avg Signal [2] | Avg Signal [3] | Avg Signal [4] |
| --- | --- | --- | --- | --- |
| Ac-ARAKAKTRSSRAGLQF-Peg-Biotin [H2A(10-25)] | 0.005421 |  |  |  |
| ATKAACitKSAPATGGVKKPHRYRPGGG-K(Biotin)-OH [H3.1K27acK36me3] | 0.01344 | 0.0002929 | 0.01207 |  |
| H3.1.1(15-34) |  |  | 0.01508 |  |
| Ac-SGRGKGGK(Ac)GLGK(Ac)GGAK(Ac)RHRKVLR-Peg-Biot [H4K8acK12acK16ac] | 0.005254 | 0.004192 |  |  |
| ATKAARK(Ac)SAPATGGVK(Me2)KPHRYRPG-GK(Biotin)-OH [H3.1K27acK36me2] | 0.003089 | 0.002974 | 0.009849 |  |
| PEPAKSAPAPKKGSKK(Ac)AVTKAQKK-Peg-Biot [Peptide H2BK16ac] | 0.006632 | 0.001252 | 0.01682 |  |
| Ac-RRYQK(Me3)STELL-Peg-Biot [Peptide H3.1K56me3] | 0.0004417 |  | 0.01852 |  |
| IHQNLLPKKSAKATKASQ-Peg-Biot [yH2A(112-129)] | 0.0006752 | 0.01029 | 0.005669 |  |
| IAQDFKTDLRF-Peg-K(Biot)-NH2 [H3.1.1(74-84)] |  |  | 0.003353 | 0.02 |
| Ac-AGGKAGKDSGKAKTKAVSR-Peg-Biot [H2A.Z.1(1-19)N-ac] | 0.007006 | 0.002647 |  |  |
| Ac-RRYQK(Ac)STELL-Peg-Biot [Peptide H3.1K56ac] | 0.004595 |  |  |  |
| ARTKQTARKSpTGGKAPRKQL-Peg-Biot [Peptide H3.1T11p] | 0.0009523 | 0.1657 | 0.0006879 |  |
| ARTK(Ac)QTARK(Ac)STGGKAPRKQL-K(Biot)-NH2 [Peptide H3.1K4acK9ac] |  |  |  | 0.05583 |
| Ac-SGR(Me2a)GK(Ac)GGKGLGKGGAKRHRKVLR-K(Biot)-NH2 [Peptide H4R3me2aK5ac] |  | 0.006503 | 0.0007875 |  |
| Ac-SGRGK(Ac)GGK(Ac)GLGK(Me)GGAK(Ac)RHRKVLR-Peg-Biot [H4K5acK8acK12me1K16ac] |  | 0.02773 | 0.0008155 |  |
| KSAPSTGGVK(Me2)KPHRYKPGT-GG-K(Biot)-NH2 [yH3K36me2] |  |  |  | 0.8217 |
| AGGRAGRDSGRAKTKAVSR-Peg-Biot [H2A.Z.1K4RK7RK11R] | 0.008119 | 0.03173 | 0.02573 |  |
| ARTKQTAR(Me2s)KSTGGKAPRKQL-Peg-Biot [Peptide H3.1R8me2s] |  | 0.05819 | 0.0002677 |  |
| Ac-pSGRGK(Ac)QGGK(Ac)ARAK(Ac)AK(Ac)TR-Peg-Biot [H2AS1pK5acK9acK13acK15ac] |  |  |  | 0.09024 |
| ARTK(Ac)QTARK(Ac)STGGK(Ac)APRKQL-K(Biot)-NH2 [H3.1K4acK9acK14ac] |  |  |  | 0.1165 |
| ARTK(Ac)QTARKSTGGKAPRKQL-K(Biot)-NH2 [Peptide H3.1K4ac] |  |  | 0.0285 | 0.1441 |
| PEPAKSAPAPKK(Ac)GSKKAVTKAQKK-Peg-Biot [Peptide H2BK12ac] | 0.004181 |  | 0.0009681 |  |
| Ac-SGRGKGGK(Ac)GLGKGGAKRHRK(Ac)VLR-Peg-Biot [Peptide H4K8acK20ac] | 0.001712 |  | 0.003203 |  |
| ARTKQTARKSTGG-NleAPRKQL-Peg-Biot [Peptide H3.1K14-Nle] | 0.0002842 | 0.09623 |  |  |
| KSAPSTGGVKKPHRYKPGT-GG-K(Biot)-NH2 (C-terminal GG-K(biotin) amide) [yH3.1(27-45)] |  |  |  | 0.1127 |

| Substance | Avg Signal [1] | Avg Signal [2] | Avg Signal [3] | Avg Signal [4] |
| --- | --- | --- | --- | --- |
| ARTKQTARKSTGGK(Me2)APRKQL-Peg-Biot [Peptide H3.1K14me2] | 0.003481 | 0.15 | 0.004075 |  |
| Ac-SGRGK(Pro)GGK(Pro)GLGK(Pro)GGAKRHRKVLR-Peg-Biot [H4K5proK8proK12pro] | 0.02856 |  | 0.005323 |  |
| Ac-APRKQLATKAARKpSAPSTGG-Peg-K(Biot)-NH2 [Peptide H3.3S28p] | 0.00807 | 0.002135 | 0.006366 |  |
| AGGK(Ac)AGK(Ac)DSGK(Ac)AKTKAVSR-Peg-Biot [H2A.Z.1K4acK7acK11ac] | 0.00926 | 0.0004754 | 0.0007875 |  |
| AGGKAGKDSGKAKTKAVSR-Peg-Biot [H2A.Z.1 unmod (1-19)] | 0.001328 |  |  |  |
| KSAPpSTGGVK(Me3)KPHRYRPGTV-K(biotin)-NH2 [H3.3S31pK36me3] | 0.01017 |  | 0.01189 |  |
| IHQNLLPKK-pS-AKATKASQ-Peg-Biot [yH2AS121p] | 0.007624 |  | 0.006042 |  |
| KSAPSpTGGVKKPHRYRPGT-G-K(Biot)-NH2 [Peptide H3.3T32p] | 0.006003 | 0.0003862 | 0.001353 |  |
| ARTKQTARKSTGGK(Me3)APRKQL-Peg-Biot [Peptide H3.1K14me3] | 0.01888 | 0.148 |  |  |
| ARTK(Ac)QTARK(Ac)pSTGGK(Ac)APRK(Ac)QL-K(Biot)-NH2 [H3.1K4acK9acS10pK14acK18ac] |  |  |  | 0.04385 |
| Ac-APRK(Ac)QLATK(Ac)AARK(Ac)SAPSTGG-Peg-Biot [H3.3K18acK23acK27ac] | 0.005039 |  | 0.0217 |  |
| Ac-SGRGKQGGKARAKAKTR-Peg-Biot [H2A(1-17)] |  |  |  | 0.1243 |
| Ac-SGRGK(Ac)GGK(Ac)GLGKGGAKRHRKVLR-Peg-Biot [Peptide H4K5acK8ac] | 0.02195 | 0.0004782 |  |  |
| Ac-SGRGK(Ac)GGKGLGK(Ac)GGAK(Ac)RHRKVLR-Peg-Biot [H4K5acK12acK16ac] | 0.0005303 |  |  |  |
| Ac-APRKQLATKAARK(Ac)SAPATGG-Peg-Biot [Peptide H3.1K27ac] | 0.003716 |  | 0.002581 |  |
| Ac-TGGKAPR-NleQLATKAAR-Peg-Biot [Peptide H3.1K18-Nle] | 0.005136 |  | 0.003627 |  |
| Ac-SGRGK(Ac)GGK(Ac)GLGKGGAK(Ac)RHRKVLR-Peg-Biot [H4K5acK8acK16ac] |  |  | 0.009927 |  |
| Ac-SGRGK(Ac)GGKGLGKGGAK(Ac)RHRKVLR-Peg-Biot [Peptide H4K5acK16ac] | 0.0005008 |  | 0.0002957 |  |
| Ac-AGGK(Ac)AGK(Ac)DSGK(Ac)AKTKAVSR-Peg-Biot [H2A.Z.1K4acK7acK11acN-ac] | 0.0008552 | 4.222e-5 | 0.000221 |  |
| KSAPSTGGVK(Ac)KPHRYKPGT-GG-K(Biot)-NH2 [yH3K36ac] |  |  |  | 0.06747 |
| Biot-Peg-GKKATQASQEY-OH [H2A.X(132-142)] | 0.01738 | 0.00268 |  |  |
| Ac-APRKQLATKAARR(Me2a)K(Me)SAPSTGG-Peg-Biot [H3.3R26me2aK27me1] | 0.002329 | 0.000609 |  |  |
| Ac-APRKQLATKAARK(Ac)SAPSTGG-Peg-Biot [Peptide H3.3K27ac] |  | 0.011 | 0.002855 |  |
| ATKAARK(Ac)SAPATGGVK(Me)KPHRYRPG-GK(Biotin)-OH [H3.1K27acK36me1] | 0.006337 | 0.01424 | 0.01097 |  |
